Source: patent publication US20240082250A1, “NEDDYLATION INHIBITION FOR USE IN THE TREATMENT OF HUMAN IMMUNODEFICIENCY VIRUS (HIV) INFECTION” (priority 2022, published 2024)

Key:
[1] = system: Cullin 2 (CUL2) neddylation; experiment: Immunoblot for Cullin 2 (CUL2) neddylation in ACH2 cells; assay type: cell-based; set-up: dose or concentration left out as unconfirmed; settings: MLN, with and without TNFa reactivation
HIV = experiment: Infectivity of HIV reactivated from ACH2 cells, TZM-bl reporter cell luciferase assay; assay type: cell-based; settings: ACH2 cells treated with MLN 100 nM or 200 nM before and during LRA (TNFa, PMAi, JQ1), vs DMSO, p24-normalized
Description: (§1) (B) MLN treatment of ACH2 cells before and during TNFa provirus reactivation increases the amount of A3G incorporated into virions, a strong candidate mechanism for decreased infectivity shown in (A). Virions from ACH2 cell supernatant were pelleted over a 20% sucrose cushion. […] A3G signal (black bars) and p24 signal (grey bars) from n=3 experiments are quantified on the right (Panel 2 in B).
Virus infectivity was determined by infecting TZM-bl reporter cell line with p24-equivalent amounts of culture supernatant fluid (e.g., normalized to the same p24 amount, as a surrogate for inoculating the same number of virions) from cells pretreated with MLN or DMSO control and reactivated by the 3 LRAs). Supernatant infectivity was measured via luciferase activity in the form of […] (RFU) where higher RFU signifies greater infectivity. Average RFU values were normalized to the control condition (LRA alone without MLN treatment) such that maximum infectivity seen in that control condition is set to 100%.

[2] = system: A3G incorporated into virions; experiment: Immunoblot of A3G in virions pelleted from ACH2 supernatant; assay type: cell-based, HIV; settings: ACH2 cells; MLN before and during TNFa reactivation; immunoblot of viral pellets, n=3
Source text: as §1
Virions from ACH2 cell supernatant were pelleted over a 20% sucrose cushion. […] A3G signal (black bars) and p24 signal (grey bars) from n=3 experiments are quantified on the right (Panel 2) in FIG. 3B.

A3G [3] = experiment: A3G LMM/HMM distribution, sucrose density gradient and immunoblot, H9 cells; assay type: cell-based; settings: 200 nM MLN for 4 or 6 days
Description: (§2) A3G low molecular mass forms (LMM) (fractions 1-5) and HMM complexes (fractions 7-12) are visualized by immunoblotting of fractions collected after density gradient centrifugation of a 5-40% sucrose gradient. […] (B) CD4+CD45RO+ memory T cells were isolated from healthy donors; cells were then stimulated with CD3/28 Abs (*) and cultured for 4 days with DMSO, 100 nM, or 200 nM MLN before density gradient centrifugation and immunoblotting of gradient fractions.

A3G [4] = experiment: A3G LMM/HMM distribution, sucrose density gradient and immunoblot, CD4+CD45RO+ memory T cells; assay type: cell-based; settings: CD4+CD45RO+ memory T cells from healthy donors, CD3/28 stimulated; 4 days, 100 nM or 200 nM MLN vs DMSO
Description: as §2

HIV capsid antigen (p24) [5] = experiment: Extracellular p24 ELISA of ACH2 culture supernatant after provirus reactivation; assay type: cell-based; settings: ACH2 cells; MLN before and during LRAs (TNFa 10 ng/mL, PMA/i, JQ1), n=3 each
Description: (§3) MLN decreases reactivation of latent provirus, as shown in VIF+, replication-competent provirus, from the latently infected ACH2 T cell line based on HIV capsid p24 amounts in cell culture supernatant fluid and intracellularly after 3 different LRAs: tumor necrosis factor alpha (TNFa) at 10 ng/mL; PMA/ionomycin (PMAi) at 405 pM phorbol 12-myristate 13-acetate (PMA) and 6.7 nM ionomycin (eBiosciences™ stimulation cocktail); and JQ1 at 100 nM (FIGS. 5 and 6). […] MLN reduces intracellular p24 production from ACH2 1 cells treated with TNFa, PMAi, and JQ1, compared to DMSO control (FIG. 6A). […] HIV promoter-driven RNA is also shown to be decreased by MLN before/during TNFa or PMAi (FIG. 7). […] ACH2 cells were pretreated for 6 hours with DMSO, or MLN at […], and then reactivated with 10 ng/mL TNFa or PMA/ionomycin.

HIV capsid antigen (p24) [6] = experiment: Immunoblot of p24 in reactivated virions pelleted from ACH2 supernatant; assay type: cell-based; settings: LRA-exposed ACH2 cells; MLN vs control
Description: as §3

HIV capsid antigen (p24) [7] = experiment: Immunoblot of p24 in reactivated virions pelleted from J-Lat 6.3 supernatant; assay type: cell-based; settings: LRA-exposed J-Lat 6.3 cells; MLN vs control
intracellular p24 [8] = experiment: Intracellular p24 production in ACH2 cells exposed to LRAs; assay type: cell-based, HIV; settings: ACH2 cells treated with TNFa (n=4), PMA/i (n=4), JQ1 (n=3); vs DMSO control
Source text: (§4) (B) MLN reduces intracellular p24 production from J-Lat 6.3 cells exposed to TNFa, as well as from ACH2 cells exposed to TNFa. […] (C) Six hour treatment of J-Lat cells (both J-Lat 6.3 and J-Lat 11.1) with MLN before and during LRA exposure reduces HIV promoter-driven GFP expression after exposure to TNFa, PMAi and JQ1.
as §3

intracellular p24 [9] = experiment: Intracellular p24 production in J-Lat 6.3 cells exposed to TNFa; assay type: cell-based, HIV
Source text: as §4

[10] = system: HIV promoter-driven GFP expression; experiment: HIV promoter-driven GFP expression in J-Lat 6.3 cells; assay type: cell-based; settings: six hour MLN treatment before and during LRA exposure (TNFa, PMAi, JQ1)
Source text: as §4, §3

[11] = system: HIV promoter-driven GFP expression; experiment: HIV promoter-driven GFP expression in J-Lat 11.1 cells; assay type: cell-based; settings: six hour MLN treatment before and during LRA exposure (TNFa, PMAi, JQ1)
Source text: as §4, §3

HIV gag RNA = HIV gag RNA RT-qPCR in ACH2 cells; assay type: cell-based; settings: MLN at before and during TNFa 10 ng/mL or PMA/ionomycin, 48 hours after reactivation, vs DMSO
Description: Gag RNA is reduced in ACH2 cells as measured by RT-qPCR 48 hours after reactivation. ACH2 cells were treated with either DMSO or MLN (at […]) before and during exposure to either 10 ng/mL TNFa (plot on left) or 405 pM PMA and 6.7 nM ionomycin (eBiosciences stimulation cocktail) (plot on right); 4 separate ACH2 cell cultures were used for each plot's experiment.
as §3

ACH2 cells = experiment: Annexin V / SYTOX Green apoptosis flow cytometry in ACH2 cells; assay type: cell-based; settings: 200 nM MLN 6 hours before and during 10 ng/mL TNFa, 16 hours post-TNFa
Description: (§5) ACH2 cells were pretreated for 6 hours with 200 nM MLN prior to provirus reactivation with 10 ng/mL TNFa. 16 hours post-TNFa addition cells were collected; apoptosis was measured via flow cytometry by staining for Annexin V and SYTOX Green DNA intercalant. […] Data was collected 24 hours after TNFa addition. (C) CD4+ T cells from 3 healthy donors were activated for 48 hrs with anti-CD3/CD28 antibodies. Cells were then treated with 200 nM of MLN and apoptosis was measured after 6, 16, and 24 hrs of drug treatment using flow cytometry. * p<0.05 *** p=0.0002 (D) Expression of RNA encoding cell cycling and apoptotic targets assessed before in ACH2 cells was determined in primary CD4 T cells via RT-qPCR. Gene expression was normalized to 18S control ** p=0.0033 **** p<0.0001 A&B) n=3 donors.
(§6) ACH2 cells were treated with 200 nM MLN for 6 hours before and then during reactivation with 10 ng/mL TNFa. 16 hours post-TNFa addition, cells were collected and percentage of apoptotic cells increased with MLN treatment upon reactivation (FIG. 8A).

NOXA, PUMA, p21, p53 RNA = experiment: RT-qPCR for apoptotic targets and cell cycle indicators in ACH2 cells; assay type: cell-based; settings: 200 nM MLN before and during 10 ng/mL TNFa, 24 hours after TNFa
Description: as §5, §6

primary CD4+ T cells = experiment: Apoptosis flow cytometry in anti-CD3/CD28-activated uninfected primary CD4+ T cells; assay type: cell-based; settings: uninfected CD4+ T cells from 3 healthy donors, anti-CD3/CD28 activated 48 hrs; 200 nM MLN; at 16 hours
Description: as §5, §6

PUMA, NOXA, p21, p53 RNA = experiment: RT-qPCR for apoptotic targets and cell cycle indicators in primary CD4 T cells; assay type: cell-based; settings: MLN
Description: as §5, §6

[12] = system: Cullin RING Ligase (CRL^Vif)-mediated degradation of APOBEC3G (A3G); settings: ex vivo, de novo HIV infections; previously reported; cited from earlier work

NS(=O)(=O)OC[C@@H]1C[C@@H](n2ccc3c(N[C@H]4CCc5ccccc54)ncnc32)C[C@@H]1O [MLN, pevonedistat]
Cullin 2 (CUL2) neddylation [1]: inhibits | infectivity of HIV in culture supernatant fluid (HIV): less infectious | amount of A3G incorporated into virions [2]: increases | intracellular distribution of A3G (LMM form vs HMM complexes) (A3G [3]): shift to LMM form | intracellular distribution of A3G (LMM form vs HMM complexes) (A3G [4]): shift to LMM form | extracellular p24 antigen in culture supernatant fluid (ELISA) (HIV capsid antigen (p24) [5]): significantly reduced | p24 antigen in pelleted reactivated virions (immunoblot) (HIV capsid antigen (p24) [6]): reduced | p24 antigen in pelleted reactivated virions (immunoblot) (HIV capsid antigen (p24) [7]): reduced | intracellular p24 production (intracellular p24 [8]): significantly reduces | intracellular p24 production (intracellular p24 [9]): reduces | HIV promoter-driven GFP expression [10]: reduces | HIV promoter-driven GFP expression [11]: reduces | HIV gag RNA expression (RT-qPCR) (HIV gag RNA): reduced | percentage of cells dying from apoptosis (Annexin V) (ACH2 cells): increases | p53 RNA expression (NOXA, PUMA, p21, p53 RNA): does not increase | relative expression of RNA encoding NOXA (NOXA, PUMA, p21, p53 RNA): increased | relative expression of RNA encoding PUMA (NOXA, PUMA, p21, p53 RNA): increased | relative expression of RNA encoding p21 (NOXA, PUMA, p21, p53 RNA): increased | apoptosis-mediated cell death (Annexin V) (primary CD4+ T cells): increase | p53 RNA expression (PUMA, NOXA, p21, p53 RNA): did not significantly increase | NOXA gene expression (RT-qPCR) (PUMA, NOXA, p21, p53 RNA; normalized to 18S): increase | PUMA gene expression (RT-qPCR) (PUMA, NOXA, p21, p53 RNA; normalized to 18S): increase | p21 expression (RT-qPCR) (PUMA, NOXA, p21, p53 RNA; normalized to 18S): increase | CRL^Vif-mediated degradation of APOBEC3G (A3G) [12]: block
